Assay results: article PMC12449371, “The role of unsaturated fatty acids in modulating human butyrylcholinesterase activity: insights from kinetics and molecular docking” (Naunyn-Schmiedeberg's Archives of Pharmacology, 2025)
pKi: −log10 of the molar value. Entries after “also recorded” stand apart in the source; their conditions may differ. Like-named read-outs stand apart in the source and are kept apart here.

Experiments:
human BChE [1] = molecular target: T1, human BChE (Homo sapiens, UniProt P06276); experiment: Inhibition kinetics, Ellman method with varying BTCh substrate; assay type: biochemical; conditions: for pKi: read-out: Ki; for Inhibition type: Lineweaver-Burk analysis, BTCh as substrate
T1 construct: purification process was performed using 0 Rh (−) human blood serum from the Hacettepe Hospital blood bank; from tissue; host or cells: human blood serum (0 Rh(−), Hacettepe Hospital blood bank)
Procedure: (§1) The butyrylcholinesterase purification process was performed using 0 Rh (−) human blood serum from the Hacettepe Hospital blood bank, as described in a previous study (Gok et al. [2023]). BChE was subjected to acid dialysis followed by DEAE-Trisacryl M ion-exchange chromatography under pH 5.5 conditions. The pooled active fractions from Trisacryl M chromatography were dialyzed to adjust neutral buffer pH 7.4 and transferred to procainamide-Sepharose 4B chromatography. The BChE enzyme was bound to the procainamide column, which was then washed with 25 mM phosphate buffer at pH 7.4. The BChE was eluted from the column with a linear gradient of 0.2–0.8 M NaCl in 25 mM potassium phosphate buffer pH 7.4, followed by dialysis. […] Silver staining (Blum et al. [1987]) and the Karnovsky-Roots technique (Karnovsky and Roots [1964]) were used to visualize gels that had been labeled for activity and protein, […].
Evaluation of BChE activity was performed according to the Ellman method (George and Abernethy [1983]) with a minor modification in a 96-well microtiter plate assay. The fatty acids oleic acid, linoleic acid, α-LA, and arachidonic acid used in the assay were dissolved in DMSO. The working solutions were then sonicated in a reaction buffer for 30 + 30 s. Based on previous experimental results, three concentrations of oleic acid, linoleic acid, α-LA, and arachidonic acid were chosen: 200–750 µM, 500–2500 µM, 50–250 µM, and 100–300 µM, respectively. This was to clarify the inhibitory mechanisms for the fatty acids. In the presence of these fatty acids, BChE activity was measured at eight progressively lower concentrations (1.0–0.05 mM) of the BTCh substrate. The experimental procedure involved incubation of a solution of the fatty acid with BChE enzyme (0.7 µg), 50 mM MOPS buffer pH 7.4, and 0.25 mM DTNB in the absence of light at 37 °C for 5 min. The reaction was initiated and monitored for 10 min at 412 nm in kinetic mode after addition of the substrate. The identical solution was run with buffer instead of fatty acids as a control and all assays were performed in triplicate. Enzyme activity was expressed in milliunits (mU), where 1 mU corresponds to the hydrolysis of 1 nmol of BTCh per minute at room temperature.
Enzyme kinetics data was analyzed and graphs were plotted using GraphPad Prism 8.42. The kinetic parameters and the enzyme-substrate relationship were fitted to the Michaelis-Menten model using nonlinear regression.

human BChE [2] = molecular target: T1, human BChE; experiment: IC50 determination, modified 96-microtiter plate Ellman assay; assay type: biochemical; conditions: purified human serum BChE, 0.5 mM BTCh, 50 mM MOPS pH 7.4, 37 °C, Table 2 head prints no unit, µM
Procedure: as §1
The IC₅₀ was determined using the modified 96-microtiter plate Ellman assay (George and Abernethy [1983]), using a total volume of 200 µL. […] The unsaturated fatty acids used for the test were dissolved in DMSO and then the working solutions were sonicated in a reaction buffer for 30 s, followed by a further 30 s. The fatty acid solutions with different final concentrations of 10–7500 µM were added to the wells. Subsequently, 50 mM MOPS buffer (pH 7.4) and 0.7 µg of purified BChE enzyme were added. The plate was incubated in the absence of light with a plate shaker at 37 °C for 10 min. Measurements were initiated by adding a final concentration of 0.25 mM DTNB (ε412, DTNB = 14.2 mM^−1 cm^−1) and 0.5 mM butyrylthiocholine (BTCh). The mixture of 1% DMSO without the BTCh substrate was used as the reagent blank. The absorbance readings were recorded at a wavelength of 412 nm for a period of 10 min using the Spectramax M2 microplate reader (Molecular Devices, USA). The activity without fatty acids was set as 100% control, while all activities with fatty acids were compared to this control. IC₅₀ values were determined using GraphPad Prism 8.4 software by plotting the percentage of BChE activity against the fatty acid concentration. Each test was performed at least four times and average values were reported as final results.

AChE = molecular target: AChE; set-up: method as in Akay et al. [2023]; conditions: ref Akay et al. [2023]; cited from earlier work
[3] = BTCh as substrate (1.0-0.05 mM), three fatty acid concentrations

T1 sequence (P06276 29-602): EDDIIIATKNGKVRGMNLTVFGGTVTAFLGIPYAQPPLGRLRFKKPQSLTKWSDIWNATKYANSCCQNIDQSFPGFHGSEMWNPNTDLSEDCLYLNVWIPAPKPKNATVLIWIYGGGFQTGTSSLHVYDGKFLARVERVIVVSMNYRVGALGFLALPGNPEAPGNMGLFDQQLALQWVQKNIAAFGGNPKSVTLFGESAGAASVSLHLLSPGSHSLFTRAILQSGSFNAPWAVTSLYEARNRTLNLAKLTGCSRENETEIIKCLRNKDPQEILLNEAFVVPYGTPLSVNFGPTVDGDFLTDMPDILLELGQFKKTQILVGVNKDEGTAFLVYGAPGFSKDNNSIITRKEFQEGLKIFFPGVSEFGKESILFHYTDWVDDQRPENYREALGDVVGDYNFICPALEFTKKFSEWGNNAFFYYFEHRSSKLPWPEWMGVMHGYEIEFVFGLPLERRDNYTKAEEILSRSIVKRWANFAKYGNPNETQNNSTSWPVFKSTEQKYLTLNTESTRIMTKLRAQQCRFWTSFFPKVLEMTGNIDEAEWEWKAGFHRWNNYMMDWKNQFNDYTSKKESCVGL

CCCCC/C=C\C/C=C\CCCCCCCC(=O)O [Linoleic acid, linoleic acid]
pKi (human BChE [1]; [3]): 2.85 | Inhibition type (human BChE [1]): Noncompetitive inhibition | Inhibition type (human BChE [1]; listed as LA): noncompetitive inhibition type | Inhibition type (human BChE [1]; listed as Linoleic acid (18:2)): Noncompetitive | IC50 (human BChE [2]; read-out: IC50): 5910 µM

CC/C=C\C/C=C\C/C=C\CCCCCCCC(=O)O [α-Linolenic acid, alpha-linolenic acid]
pKi (human BChE [1]; [3]): 3.18 | Inhibition type (human BChE [1]; listed as α-LA): noncompetitively; also recorded: noncompetitive inhibition type | Inhibition type (human BChE [1]; listed as α-Linolenic acid (18:3)): Noncompetitive | noncompetitive inhibitory constants (Ki) on AChE, rank in words (AChE): lowest Ki | IC50 (human BChE [2]; read-out: IC50): 5810 µM

CCCCCCCCCCCCCCCCCCCC(=O)O [eicosanoic acid]
AChE inhibition in words (AChE): strongly inhibits

CCCCC/C=C\C/C=C\C/C=C\C/C=C\CCCC(=O)O [Arachidonic acid, arachidonic acid]
pKi (human BChE [1]; [3]): 3.33 | Inhibition type (human BChE [1]; listed as AA): uncompetitive type inhibition | Inhibition type (human BChE [1]; listed as Arachidonic acid (20:4)): Uncompetitive | inhibitory effect on AChE (IC50), rank in words (AChE): strongest inhibitory effect | IC50 (human BChE [2]): strongest inhibitory activity | IC50 (human BChE [2]; read-out: IC50): 611 µM

CCCCCCCC/C=C\CCCCCCCC(=O)O [Oleic acid, oleic acid]
Ki (human BChE [1]; [3]): lowest Ki value | pKi (human BChE [1]; [3]): 3.49 | Inhibition type (human BChE [1]): noncompetitively | Inhibition type (human BChE [1]; listed as Oleic acid (18:1)): Noncompetitive | IC50 (human BChE [2]; read-out: IC50): 2370 µM
